Entries after “also recorded” stand apart in the source; their conditions may differ.
Legend:
Type in all cases: in vivo, human
[1] = Lipoprotein size and sub fraction concentrations by NMR
Procedure: Mean particle size, total number of particles and their number within different subclasses of VLDL, LDL, and HDL, were determined by NMR methods. For this analysis frozen plasma samples were shipped in dry ice by overnight delivery to LipoScience Inc., who performed the analysis.
(§1) Results are presented as means±SEM.

[2] = Complete blood cell count (hematological parameters); parameters: Monocytes / Eosinophil / Basophils / Platelets / WBC / Neutrophils / Lymphocytes: unit not given here
Procedure: Complete and differential cell counts were performed at the hematology laboratory of University of California Medical Center (UCDMC), Sacramento using Beckman Coulter LH 700.
as §1

[3] = test system: Complement 3; assay: Plasma complement 3 in MAP 1.6
Procedure: Plasma samples prepared from blood collected in EDTA-containing tubes were stored at −80° C. until tested. The samples were thawed at room temperature, vortexed, spun at 13,000×g for 5 minutes for clarification and 100 uL aliquots were removed for MAP analysis into a master microtiter plate. Using automated pipetting, an aliquot of each sample was introduced into one of the capture microsphere multiplexes of the Human MAP 1.6. This MAP comprised of 89 antigens that included markers for oxidative stress, inflammation, immune status, T2DM, CVD, blood clotting, cancer, liver and kidney functions. All plasma samples were tested in duplicate. The mixture of sample and capture microspheres were thoroughly mixed and incubated at room temperature for 1 hour. Multiplexed cocktails of biotinylated, reporter antibodies for each multiplex were then added robotically and after thorough mixing, were incubated for an additional hour at room temperature. […] Testing results were determined first for the high, medium and low controls for each multiplex to ensure proper assay performance. Unknown values for each of the analytes localized in a specific multiplex were determined using 4 and 5 parameter, weighted and non-weighted curve fitting algorithms included in the data analysis package. […]

[4] = test system: peripheral blood mononuclear cells (PBMNC); assay: Ex-vivo production of cytokines by PBMNC
Procedure: Peripheral blood mononuclear cells (PBMNC) were isolated by using Dulbecco's phosphate buffered saline (DPBS) and suspended in Russ's-10 medium containing 10% autologous sera at concentrations of 1 million/mL. PBMNC were cultured in Costar 96-well sterile flat bottom plates coated with mouse anti-human CD3 and CD28 to stimulate T cells. Another set of wells were stimulated with LPS (final concentration 10 ng/mL) to stimulate monocytes. Cell culture supernatants were collected at 24, 48, and 72 hr after stimulation by centrifugation. Cell culture supernatants were stored at −80° C. until tested for cytokine concentrations. All cytokines were analyzed on a BioPlex instrument (BioRad Laboratories, Richmond, Calif.) with multiplex reagents kits (Millipore Corp., Danvers, Mass.).
as §1

[5] = plasma, NMR, End LG, 500 mg/d, 56 days, n = 10, mean ± SEM
[6] = End LG, 500 mg/d, 56 days, n = 10, mean ± SEM
[7] = cells stimulated with CD3/28 (each 0.75 μg/mL, 72 hr), End LG, 500 mg/d, 56 days, n = 10, mean ± SEM
[8] = cells stimulated with LPS (10 ng/mL, 24 hr), End LG, 500 mg/d, 56 days, n = 10, mean ± SEM

For `CC1(C)O[C@H]2CC(=O)OC[C@]23[C@H]2CC[C@@](C)([C@@H](O[C@@H]4O[C@H](CO)[C@@H](O)[C@H](O)[C@H]4O)c4ccoc4)[C@@]4(O[C@@H]4C(=O)O)[C@]2(C)C(=O)C[C@@H]13` [LG, limonin glucoside], the “Calculated TG total” value [1, 5] was 150.50 ± 22.84 mg/dL, the Calculated cholesterol total [1, 5] was 208.50 ± 5.45 mg/dL and the HDL cholesterol total [1, 5] was 46.10 ± 2.65 mg/dL. It also gave an IDL cholesterol [1, 5] of 8.93 ± 1.83 mg/dL, an IDL particles [1, 5] of 71.80 ± 14.77 nmols/L and an LDL total cholesterol [1, 5] of 137.60 ± 5.14 mg/dL. The “Large HDL cholesterol” value [1, 5] was 20.19 ± 3.24 mg/dL, the “Large HDL particles” value [1, 5] was 6.57 ± 0.99 μmols/L and the “Large LDL cholesterol” value [1, 5] was 67.24 ± 9.75 mg/dL. For the same molecule, the “Large LDL particles” value [1, 5] was 495.80 ± 71.47 nmols/L, the “Large VLDL & chylomicron TG” value [1, 5] was 33.01 ± 13.18 mg/dL and the “Large VLDL & chylomicron particles” value [1, 5] was 3.50 ± 1.64 nmol/L. For the same molecule, the “Mean particle size (HDL particles)” value [1, 5] was 8.86 ± 0.12 nm, the “Mean particle size (LDL particles)” value [1, 5] was 20.94 ± 0.26 nm and the “Mean particle size (VLDL & chylomicron particles)” value [1, 5] was 48.60 ± 2.25 nm. The “Medium HDL cholesterol” value [1, 5] was 5.87 ± 1.87 mg/dL, the “Medium HDL particles” value [1, 5] was 4.54 ± 1.43 μmols/L and the “Medium VLDL & chylomicron particles” value [1, 5] was 37.70 ± 8.22 nmol/L. For the same molecule, the “Medium VLDL TG” value [1, 5] was 53.08 ± 11.93 mg/dL, the “Medium small LDL cholesterol” value [1, 5] was 22.60 ± 3.80 mg/dL and the “Medium small LDL particles” value [1, 5] was 208.40 ± 35.06 nmols/L. For the same molecule, the “Small HDL cholesterol” value [1, 5] was 20.03 ± 1.91 mg/dL, the “Small HDL particles” value [1, 5] was 20.25 ± 1.94 μmols/L and the “Small LDL cholesterol” value [1, 5] was 61.47 ± 10.32 mg/dL. The “Small VLDL & chylomicron particles” value [1, 5] was 45.47 ± 5.95 nmol/L, the “Small VLDL TG” value [1, 5] was 20.32 ± 2.64 mg/dL and the “Total HDL particles” value [1, 5] was 31.35 ± 0.95 μmols/L. For the same molecule, the “Total LDL particle” value [1, 5] was 1582.80 ± 118.15 nmols/L, the “Total VLDL & chylomicron particles” value [1, 5] was 86.69 ± 13.15 nmol/L and the “Total small LDL particles” value [1, 5] was 1015.20 ± 169.46 nmols/L. For the same molecule, the “VLDL & chylomicron total TG” value [1, 5] was 106.50 ± 22.20 mg/dL, the “Very small LDL cholesterol” value [1, 5] was 38.91 ± 6.55 mg/dL and the “Very small LDL particles” value [1, 5] was 806.80 ± 134.82 nmols/L. The “effect on mean particle sizes and sub-fraction concentrations of VLDL, LDL, HDL” value ([1]; vs end of placebo treatment) was “did not alter”, the Basophils [2, 6] was 0.03 ± 0.00 and the “Basophils, % of WBC” value [2, 6] was 0.47 ± 0.04 % of WBC. For the same molecule, the Eosinophil [2, 6] was 0.18 ± 0.03, the “Eosinophil, % of WBC” value [2, 6] was 3.32 ± 0.52 % of WBC and the Hematocrit [2, 6] was 41.47 ± 1.00%. The Hemoglobin [2, 6] was 13.94 ± 0.61 g/dL, the Lymphocytes [2, 6] was 1.80 ± 0.14 and the “Lymphocytes, % of WBC” value [2, 6] was 33.01 ± 2.09 % of WBC. It also gave an MCH [2, 6] of 31.08 ± 0.39 pico grams, an MCHC [2, 6] of 33.98 ± 0.16% and an MCV [2, 6] of 91.44 ± 1.29 microns. The Monocytes [2, 6] was 0.42 ± 0.03, the “Monocytes, % of WBC” value [2, 6] was 7.79 ± 1.03 % of WBC and the Neutrophils [2, 6] was 3.14 ± 0.30. The “Neutrophils, % of WBC” value [2, 6] was 55.41 ± 3.16 % of WBC, the Platelets [2, 6] was 229.00 ± 12.74 and the RBC [2, 6] was 4.54 ± 0.13 × 10^−12/L. The RDW [2, 6] was 13.12 ± 0.13%, the WBC [2, 6] was 5.55 ± 0.38 and the pH [2, 6] was 6.75 ± 0.27. For the same molecule, the “effect on hematological variables” value ([2]; vs end of placebo treatment, baseline as covariate) was “did not alter”, the “Complement 3” value ([3]; plasma, End LG, 500 mg/d, 56 days, n = 10, mean ± SEM) was 1.17 ± 0.05 mg/mL and the “decrease of plasma C3 concentration” value ([3]; vs end of placebo treatment, p=0.014) was 6.4%. The “ex-vivo secretion of cytokines by stimulated T cells and monocytes” value ([4]; LG vs placebo treatment) was “did not differ; also recorded: trend for decrease”, the IL-2 [4, 7] was 58.8 ± 25.8 pg/mL and the IL-4 [4, 7] was 66.7 ± 12.8 pg/mL. The IL-10 [4, 7] was 779 ± 126 pg/mL, the “Interferon γ” value [4, 7] was 51700 ± 10536 pg/mL and the “TNF α” value [4, 7] was 6723 ± 970 pg/mL. The IL-1β [4, 8] was 4731 ± 1123 pg/mL, the IL-6 [4, 8] was 10926 ± 1586 pg/mL and the “TNF α” value [4, 8] was 1354 ± 231 pg/mL. For the same molecule, the “concentrations of all secreted cytokines except IL-10 lower than after placebo” value ([4]; ex vivo, CD3/28 or LPS stimulated PBMNC, not significant) was 8-18%.

Source: patent publication US9066965B1, “Purified limonin glucoside for prevention and treatment of chronic diseases” (The United States of America, as represented by the …, priority 2012, dated 2015)
